In patent publication US10251871B2, “Compositions and methods for treatment of edema” (Memorial Sloan Kettering Cancer Center, priority 2015, dated 2019):

Legend:
[1] = test system: mouse tail model of lymphedema; test: Mouse tail model of lymphedema (tail volume, histology, immunostaining, lymphoscintigraphy, NIR imaging, PCR, ELISA); format: in vivo, C57BL/6J mice
[2] = test system: blood vessel permeability; test: Miles assay for vascular permeability after PLND; format: in vivo; settings: topical tacrolimus 2 weeks, PLND mice, vs vehicle control
Description: Additionally, to ensure that the observed effects of tacrolimus on lymphatic function were not a result of decreased vascular permeability and blood vessel leakage, we performed a Miles assay to measure blood vessel permeability following PLND surgeries with and without tacrolimus. […] In-vivo detection of ROS was performed by bioluminescent imaging of NADPH oxidase as described by Han et al. (J. Vis. Exp. doi: 10.3791/3925 (2012)). Briefly, mice were systemically injected with L-012 (an analogue of luminol) (20 μg/g) dissolved in PBS at different time points after PLND and luminescent signals representing ROS at the PLND surgery site were imaged and quantified using IVIS spectrum 200 (Xenogen Corporation). Miles assay for vascular permeability was performed as described. Radu et al., J. Vis. Exp. doi: 10.3791/50062 (2013). Briefly, 200 μl of 0.5% sterile Evans blue was injected via tail vein to 2 weeks tacrolimus treated PLND mice. After 30 min PLND hind limbs were imaged to observe Evans blue leakage. Hind limbs were excised and incubated in formamide for 48 hrs. at 55° C. to extract the Evans blue. Extracted Evans blue was quantified by measuring absorbance at 610 nm.

[3] = test system: hind limb collecting lymphatics of non-operated animals; test: Non-operated (sham) hind limb, NIR lymphatic imaging; format: in vivo, mice; settings: tacrolimus, non-operated animals (anesthesia only, no surgery)
Description: Upper panels are representative images of NIR lymphatic images of the hind limb lymphatics in sham operated mice (i.e., anesthesia without incision or PLND) following treatment with control or topical tacrolimus for 2 weeks. Quantification of collecting lymphatic vessel pulsation frequency following 3 or 14 days of treatment with tacrolimus is shown below.
This is important since previous studies have shown that perilymphatic iNOS expression is an important regulator of collecting lymphatic pumping capacity. Liao et al., Proc. Natl. Acad. Sci. USA 108:18784-18789 (2011).

[4] = test system: popliteal lymph node dissection (PLND) mouse model; test: Popliteal lymph node dissection (PLND) hind limb model of lymphatic injury; settings: 4 weeks after PLND
Description: To enable analysis of the lymphatic collecting vessel pumping capacity we utilized a previously described mouse popliteal lymphadenectomy model. […] Briefly, the hind limb collecting vessels and popliteal lymph nodes were identified and the lymph nodes were excised with the popliteal fat pad. Beginning 2 weeks after surgery, animals were randomized to treatment with either 0.1% topical tacrolimus or vehicle control (petroleum jelly) twice daily for 2 weeks.
Near infrared imaging (NIR) was performed using a modification of previously published results. […] Briefly, 15 μl (0.15 mg mL^−1) indocyanine green (ICG, Sigma-Aldrich, Saint Louis, Mo.) was injected intradermally in the web space of the dorsal hind limb and visualized using an EVOS EMCCD camera (Life Technologies, Carlsbad, Calif.) with a LED light source (CoolLED, Andover, United Kingdom). Static/video images were obtained using a Zeiss V12 Stereolumar microscope (Caliper Life Sciences, Hopkinton, Mass.) and lymphatic pumping function was analyzed using Fiji software (NIH, Bethesda, Md.) by identifying a region-of-interest over the dominant collecting vessel of the leg and subtracting the background fluorescent intensity plotted over time.
Immunohistochemical staining was performed using our published methods. […] Briefly, tissues were fixed in 4% paraformaldehyde at 4° C., decalcified in 5% sodium EDTA (Santa Cruz Biotechnology, Dallas, Tex.), embedded in paraffin, and sectioned at 5 micrometers. Cut sections were rehydrated and heat-mediated antigen unmasking was performed using 90° C. sodium citrate (Sigma-Aldrich). Non-specific binding was blocked with 2% BSA/20% animal serum. Tissues were incubated overnight with primary antibody at 4° C. Primary antibodies used for immunohistochemical stains included goat anti-mouse LYVE-1, rat anti-mouse CD45, rabbit anti-mouse CD4, and rat anti-mouse F4/80 (all from R&D, Minneapolis, Minn.), rabbit anti-mouse CD3 (from Dako, Carpinteria, Calif.), Cy3-conjugated mouse anti-αSMA (from Sigma-Aldrich), rabbit anti-human IFN-γ, rabbit anti-mouse TGF-β1, rabbit anti-mouse p-SMAD3, rabbit anti-mouse collagen I, rabbit-anti-mouse iNOS, and hamster-anti-mouse podoplanin, rabbit anti-mouse HMGB-1 and HSP-70 (all from ABCAM, Cambridge, Mass.).
Immunofluorescence staining was performed using AlexaFluor fluorophore-conjugated secondary antibodies (Life Technologies, Norwalk, Conn.). Images were scanned using Mirax imaging software (Carl Zeiss).

[5] = topical 0.1% tacrolimus twice daily, early treatment (from 2 weeks after surgery for 4 weeks), vs vehicle control
[6] = topical 0.1% tacrolimus twice daily, late treatment (from 6 weeks after surgery for 3 weeks), vs vehicle control
[7] = topical 0.1% tacrolimus, early and late treatment, vs control
[8] = topical 0.1% tacrolimus, early treatment, qPCR 6 weeks after injury, vs control
[9] = topical 0.1% tacrolimus, early treatment, vs control
[10] = topical 0.1% tacrolimus, late treatment, vs control
[11] = topical 0.1% tacrolimus twice daily for 2 weeks from 2 weeks after PLND, vs vehicle control
[12] = topical 0.1% tacrolimus, vs control
[13] = topical 0.1% tacrolimus, vs vehicle treated controls

C=CC[C@@H]1/C=C(\C)C[C@H](C)C[C@H](OC)[C@H]2O[C@@](O)(C(=O)C(=O)N3CCCC[C@H]3C(=O)O[C@H](/C(C)=C/[C@@H]3CC[C@@H](O)[C@H](OC)C3)[C@H](C)[C@@H](O)CC1=O)[C@H](C)C[C@@H]2OC [tacrolimus]
decrease in soft tissue thickness [1, 5]: ~50%
decrease in tail volume [1, 5]: 95%
soft tissue thickness [1, 6]: highly effective in decreasing
tail volume [1, 6]: highly effective in decreasing
Scar index (picrosirius red, ratio of collagen I/III) [1, 7]: markedly decreased
cellular expression of phosphorylated SMAD3 (pSMAD-3) [1, 7]: markedly decreased
dermal and subcutaneous type I collagen deposition [1, 7]: markedly decreased
expression of TGF-β1 (immunofluorescence) [1, 7]: markedly decreased
NIR (ICG) imaging: transport across the tail wound ([1]; topical 0.1% tacrolimus, early treatment, 6 weeks after lymphatic ligation): rapid transport of interstitial fluid proximally across the tail wound
IFN-γ mRNA expression in tail tissue [1, 8]: significant decrease
TGF-β1 mRNA expression in tail tissue [1, 8]: significant decrease
VEGF-C mRNA expression in tail tissue [1, 8]: no differences
increase in decay adjusted 99mTc uptake of the sacral lymph nodes [1, 9]: more than 6 fold
increase in newly formed lymphatic vessels (LYVE-1) bridging the zone of lymphatic injury [1, 9]: 189%
reduction of CD45+ cells (leukocytes) infiltrating dermis and subcutaneous fat [1, 9]: 56%
reduction of IFN-γ-producing cells [1, 9]: 54%
reduction of infiltrating CD3+ cells [1, 9]: 53%
reduction of infiltrating CD4+ cells [1, 9]: 78%
reduction of soft tissue infiltration of macrophages (F4/80+ cells) [1, 9]: 86%
increase in newly formed lymphatic vessels (LYVE-1) bridging the zone of lymphatic injury [1, 10]: 106%
reduction of CD45+ cells (leukocytes) infiltrating dermis and subcutaneous fat [1, 10]: 49%
reduction of IFN-γ-producing cells [1, 10]: 57%
reduction of infiltrating CD3+ cells [1, 10]: 49%
reduction of infiltrating CD4+ cells [1, 10]: 71%
reduction of soft tissue infiltration of macrophages (F4/80+ cells) [1, 10]: 73%
increase in 99mTc nodal uptake ([1]; topical 0.1% tacrolimus, late treatment, vs control, did not reach statistical significance): 2 fold
blood vessel permeability (Evans blue) [2]: no differences
lymphatic contraction frequency [3]: did not increase
perilymphatic accumulation of inflammatory cells [3]: did not increase
increase in collecting lymphatic packet frequency [4, 11]: > 2 fold
lymphatic leakiness and dermal back flow of ICG [4, 11]: markedly decreased
collateral lymphatics draining towards the inguinal lymph node ([4]; topical 0.1% tacrolimus, NIR imaging and IF staining, vs control): significantly more
luminal area of hind limb collectors [4, 12]: no differences
number of alpha smooth muscles surrounding hind limb collecting lymphatics [4, 12]: no differences
reduction in perilymphatic CD4+ cells [4, 13]: 56%
reduction in perilymphatic CD45+ cells [4, 13]: 39%
reduction in perilymphatic F4/80+ cells [4, 13]: 36%
reduction in the number of perilymphatic iNOS-expressing cells [4, 13]: 42%
